In patent US20260102340A1, “Therapeutic Formulation” (1000739373 Ontario Ltd., priority 2022, published 2026):

How the values were obtained:
[1] = Visual solubility of formulations packaged in glass bottles; assay type: physicochemical; settings: 100 μg/50 μl in 12% w/w ethanol and HFA 134a, T=5° C. and T=20° C.
[2] = Stability of CBD formulation in HFA 134a (residual); assay type: physicochemical; settings: for Residual (% of 5° C. data): Valve Up
Method: The stability of a cannabidiol (CBD) formulation in HFA 134a was evaluated over a 6-month period.
The formulation consisted of 3.57% (w/w) CBD, 15% (w/w) ethanol, and HFA 134a. The formulation was packaged in Presspart™ Plasma 14 mL canisters with metering valves 1908 (Aptar™). The canisters were stored in the valve-up orientation for 6 months at 5° C., 25° C., or 40° C. The residual formulation was measured at 1 month and 6 months.

Row | SMILES | Visual solubility in glass bottles [1] | Stability of CBD-HFA formulations ([2]; 5° C., 25° C. and 40° C.) | Residual (% of 5° C. data) ([2]; Batch OZ210527/DAL/G1, 1 month (n = 3), 25° C.) | Residual (% of 5° C. data) ([2]; Batch OZ210527/DAL/G1, 1 month (n = 3), 40° C.) | Residual (% of 5° C. data) ([2]; Batch OZ210527/DAL/G1, 3.57% CBD, 15% ethanol, HFA 134a, 1 month (n = 3), 5° C.) | Residual (% of 5° C. data) ([2]; Batch OZ210527/DAL/G1, 6 month (n = 4), 25° C.) | Residual (% of 5° C. data) ([2]; Batch OZ210527/DAL/H1, 1 month (n = 3), 25° C.) | Residual (% of 5° C. data) ([2]; Batch OZ210527/DAL/H1, 1 month (n = 3), 40° C.) | Residual (% of 5° C. data) ([2]; Batch OZ210527/DAL/H1, 3.57% CBD, 15% ethanol, HFA 134a, 1 month (n = 3), 5° C.) | Residual (% of 5° C. data) ([2]; Batch OZ210527/DAL/H1, 6 month (n = 4), 25° C.)
1 | CCCC1O[C@@H]2C[C@H]3[C@@H]4CCC5=CC(=O)C=C[C@]5(C)[C@H]4[C@@H](O)C[C@]3(C)[C@]2(C(=O)CO)O1 (stereo partly shown) [Budesonide] | confirmed visually | – | – | – | – | – | – | – | – | –
2 | C=C(C)[C@@H]1CCC(C)=C[C@H]1c1c(O)cc(CCCCC)cc1O [CBD, cannabidiol] | – | stable | 100.3 % of 5 °C data | 98.5 % of 5 °C data | 100.00 % of 5 °C data | 93.3 % of 5 °C data | 100.2 % of 5 °C data | 98.1 % of 5 °C data | 100.0 % of 5 °C data | 93.5 % of 5 °C data
